The target of the assay is T1, G protein-coupled receptor 119 (GPR-119) (Mesocricetus auratus, UniProt A0A1U8CD06).
T1 construct: hamster-derived β-cells containing G protein-coupled receptor 119 (GPR-119), HIT-T15 cells; host or cells: HIT-T15 (hamster pancreatic β-cells)
T1 sequence (A0A1U8CD06 1-334): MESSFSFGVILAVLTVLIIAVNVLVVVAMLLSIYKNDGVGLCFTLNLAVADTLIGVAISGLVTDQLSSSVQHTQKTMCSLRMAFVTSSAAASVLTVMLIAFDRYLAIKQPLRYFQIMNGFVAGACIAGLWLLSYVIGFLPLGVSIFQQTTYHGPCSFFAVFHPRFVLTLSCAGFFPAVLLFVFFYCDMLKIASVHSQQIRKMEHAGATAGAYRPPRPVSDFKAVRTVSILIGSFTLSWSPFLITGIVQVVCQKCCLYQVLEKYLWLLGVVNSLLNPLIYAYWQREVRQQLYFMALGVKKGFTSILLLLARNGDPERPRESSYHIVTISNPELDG
The assay is described as follows: cAMP activity in HIT-T15 cells (cAMP dynamic kit, FRET). It counts as cell-based, hamster. In outline:
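Hamster HIT-T15 cells (60,000/well) were treated next day with compound at six concentrations, 0.0032–10 μM, for 1 h at 37° C. Cells were then lysed and cAMP measured by competitive HTRF immunoassay (D2-cAMP, cryptate anti-cAMP). Activity was derived as the change in FRET signal relative to DMSO.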

The mark [1] stands for this setting: 1 hour at 37° C., six concentrations 0.0032 to 10 μM, read-out: EC50.

Each structure is given as a SMILES string. Read-outs that look alike come from different tables or passages of the source. Where only a bound is given, the exact number is not on record here.

As usually defined, the EC50 is the midpoint of the concentration-response curve.

In the case of `CCc1cnc(N2CCC(COc3ccc(C4=CCC(C(=O)N5CCN(C(=O)C=C(C)C)CC5)CC4)cc3)CC2)nc1` (centres unmarked) [Example 414, 1-(4-(4-(4-((1-(5-ethylpyrimidin-2-yl)piperidin-4-yl)methoxy)phenyl)cyclohex-3-enecarbonyl)piperazin-1-yl)-3-methylbut-2-en-1-one], the 50% effective concentration (EC50) is, setting by setting: under setting [1], 27 nM; (Table 2, read-out: EC50 value) at most 50 nM. For `CCc1cnc(N2CCC(COc3ccc(C4=CCC(C(=O)N5CC(F)(F)C(F)(F)C5)CC4)c(F)c3)CC2)nc1` (single isomer, unassigned; (+)) [Example 464, (+)-(4-(4-((1-(5-ethylpyrimidin-2-yl)piperidin-4-yl)methoxy)-2-fluorophenyl)cyclohex-3-enyl)(3,3,4,4-tetrafluoropyrrolidin-1-yl)methanone], in that order: 13 nM and at most 50 nM.

Regarding `CCc1cnc(N2CCC(COc3ccc(C4=CCC(C(=O)N5CCC(=NO)CC5)CC4)cc3)CC2)nc1` (centres unmarked) [Example 277, (4-(4-((1-(5-ethylpyrimidin-2-yl)piperidin-4-yl)methoxy)phenyl)cyclohex-3-enyl)(4-(hydroxyimino)piperidin-1-yl)methanone], the EC50 (Table 2, read-out: EC50 value) is at most 50 nM.

With `CC(C)c1noc(N2CCC(COc3ccc(C4=CCC(C(=O)N5CCN(C6CC6)CC5)CC4)cc3)CC2)n1` (centres unmarked) [Example 397, (4-cyclopropylpiperazin-1-yl)(4-(4-((1-(3-isopropyl-1,2,4-oxadiazol-5-yl)piperidin-4-yl)methoxy)phenyl)cyclohex-3-enyl)methanone], the EC50 under setting [1] was 9.9 nM. Still for that read-out and setting: in the case of `CCc1cnc(N2CCC(COc3ccc(C4=CCC(C(=O)N5CCNCC5)CC4)cc3F)CC2)nc1` (centres unmarked) [Example 434, (4-(4-((1-(5-ethylpyrimidin-2-yl)piperidin-4-yl)methoxy)-3-fluorophenyl)cyclohex-3-enyl)(piperazin-1-yl)methanone] it was 180 nM.

Regarding `CC(C)c1noc(N2CCC(COc3ccc(C4=CCC(C(=O)N5CC(=NO)C5)CC4)cn3)CC2)n1` (centres unmarked) [Example 337, (3-(hydroxyimino)azetidin-1-yl)(4-(6-((1-(3-isopropyl-1,2,4-oxadiazol-5-yl)piperidin-4-yl)methoxy)pyridin-3-yl)cyclohex-3-enyl)methanone], the half-maximal effective concentration (EC50) under setting [1] was 160 nM. `CCc1cnc(N2CCC(COc3ccc(C4=CCC(C(=O)N5CCC(C(F)(F)F)CC5)CC4)cc3F)CC2)nc1` (centres unmarked) [Example 456, (4-(4-((1-(5-ethylpyrimidin-2-yl)piperidin-4-yl)methoxy)-3-fluorophenyl)cyclohex-3-enyl)(4-(trifluoromethyl)piperidin-1-yl)methanone]: the EC50 is 18 nM under setting [1] and at most 50 nM (Table 2, read-out: EC50 value). As to `CCc1cnc(N2CCC(COc3ccc(C4=CCC(C(=O)N(C)CCO)CC4)cc3F)CC2)nc1` (centres unmarked) [Example 359, 4-(4-((1-(5-ethylpyrimidin-2-yl)piperidin-4-yl)methoxy)-3-fluorophenyl)-N-(2-hydroxyethyl)-N-methylcyclohex-3-enecarboxamide], the concentration giving a half-maximal response (EC50) was 14 nM under setting [1] and at most 50 nM (Table 2, read-out: EC50 value). For `CCc1cnc(N2CCC(COc3ccc(C4=CCC(C(=O)N5CCC(O)CC5)CC4)c(F)c3)CC2)nc1` (centres unmarked) [Example 431, (4-(4-((1-(5-ethylpyrimidin-2-yl)piperidin-4-yl)methoxy)-2-fluorophenyl)cyclohex-3-enyl)(4-hydroxypiperidin-1-yl)methanone], in that order: 27 nM and at most 50 nM.

On to `CCN1CCN(C(=O)C2CC=C(c3ccc(OCC4CCN(c5nc(C(C)C)no5)CC4)c(F)c3)CC2)CC1` (centres unmarked) [Example 346, (4-ethylpiperazin-1-yl)(4-(3-fluoro-4-((1-(3-isopropyl-1,2,4-oxadiazol-5-yl)piperidin-4-yl)methoxy)phenyl)cyclohex-3-enyl)methanone], for which the EC50 under setting [1] was determined as 100 nM. In the case of `CCc1cnc(N2CCC(COc3ccc(C4=CCC(C(=O)N5CCC(F)(F)CC5)CC4)c(F)c3)CC2)nc1` (centres unmarked) [Example 453, (4,4-difluoropiperidin-1-yl)(4-(4-((1-(5-ethylpyrimidin-2-yl)piperidin-4-yl)methoxy)-2-fluorophenyl)cyclohex-3-enyl)methanone], the concentration for a half-maximal effect (EC50) was 12 nM under setting [1] and at most 50 nM (Table 2, read-out: EC50 value). For the molecule `CCc1cnc(N2CCC(COc3ccc(C4=CCC(C(=O)N5CCOCC5)CC4)cc3C(F)(F)F)CC2)nc1` (centres unmarked) [Example 400, (4-(4-((1-(5-ethylpyrimidin-2-yl)piperidin-4-yl)methoxy)-3-(trifluoromethyl)phenyl)cyclohex-3-enyl)(morpholino)methanone], under setting [1], the 50% effective concentration (EC50) was 140 nM. `CC(C)c1noc(N2CCC(COc3ccc(C4=CCC(C(=O)N5CCN(C6CC6)CC5)CC4)cc3F)CC2)n1` (centres unmarked) [Example 369, (4-cyclopropylpiperazin-1-yl)(4-(3-fluoro-4-((1-(3-isopropyl-1,2,4-oxadiazol-5-yl)piperidin-4-yl)methoxy)phenyl)cyclohex-3-enyl)methanone]: the EC50 under setting [1] worked out at 9 nM. In the case of `CCc1cnc(N2CCC(COc3ccc(C4=CCC(C(=O)N5CCCC5)CC4)cc3C(F)(F)F)CC2)nc1` (centres unmarked) [Example 374], the EC50 under setting [1] stood at 150 nM. With `CC(C)(C)OC(=O)N1CCC(COc2ccc(C3=CCC(C(=O)N4CCC5(C=Cc6ccccc65)CC4)CC3)cc2)CC1` (centres unmarked) [Example 264, tert-butyl 4-((4-(4-(spiro[indene-1,4′-piperidin]-1′-ylcarbonyl)cyclohex-1-enyl)phenoxy)methyl)piperidine-1-carboxylate], the concentration for a half-maximal effect (EC50) (Table 2, read-out: EC50 value) is at most 50 nM. On to `CCC(F)(F)C(=O)N1CCC(COc2ccc(C3=CCC(C(=O)N4CCOCC4)CC3)cc2F)CC1` (centres unmarked) [Example 439, 2,2-difluoro-1-(4-((2-fluoro-4-(4-(morpholine-4-carbonyl)cyclohex-1-enyl)phenoxy)methyl)piperidin-1-yl)butan-1-one], for which the EC50 was 5.9 nM under setting [1] and at most 50 nM (Table 2, read-out: EC50 value). On the same counts, the results for `CCc1cnc(N2CCC(COc3ccc(C4=CCC(C(=O)N(C)CCCO)CC4)cc3F)CC2)nc1` (centres unmarked) [Example 376, 4-(4-((1-(5-ethylpyrimidin-2-yl)piperidin-4-yl)methoxy)-3-fluorophenyl)-N-(3-hydroxypropyl)-N-methylcyclohex-3-enecarboxamide] are 10.5 nM and at most 50 nM.

Regarding `CCc1cnc(N2CCC(COc3ccc(C4=CCC(C(=O)N5CCC(CCO)CC5)CC4)cc3F)CC2)nc1` (centres unmarked) [Example 296, (4-(4-((1-(5-ethylpyrimidin-2-yl)piperidin-4-yl)methoxy)-3-fluorophenyl)cyclohex-3-enyl)(4-(2-hydroxyethyl)piperidin-1-yl)methanone], the EC50 reads like this: under setting [1], 6.8 nM; (Table 2, read-out: EC50 value) at most 50 nM. For the molecule `CC(C)(C)OC(=O)N1CCC(COc2ccc(C3=CCC(C(=O)N4CCC(C#N)CC4)CC3)cc2)CC1` (centres unmarked) [Example 262], the half-maximal effective concentration (EC50) was 7 nM under setting [1] and at most 50 nM (Table 2, read-out: EC50 value). For `CCc1cnc(N2CCC(COc3ccc(C4=CCC(C(=O)N(CCO)CCO)CC4)cc3F)CC2)nc1` (centres unmarked) [Example 323, 4-(4-((1-(5-ethylpyrimidin-2-yl)piperidin-4-yl)methoxy)-3-fluorophenyl)-N,N-bis(2-hydroxyethyl)cyclohex-3-enecarboxamide], in that order: 28 nM and at most 50 nM. Consider `CC(C)(C)OC(=O)N1CCC(COc2ccc(C3=CCC(C(=O)N4CCCCC4)CC3)nc2)CC1` (centres unmarked) [Example 311, tert-butyl 4-((6-(4-(piperidine-1-carbonyl)cyclohex-1-enyl)pyridin-3-yloxy)methyl)piperidine-1-carboxylate], for which the EC50 under setting [1] came to 79 nM. As to `CC(C)c1noc(N2CCC(COc3ccc(C4=CCC(C(=O)N5CCN(C6CC6)CC5)CC4)cc3F)CC2)n1` (centres unmarked) [Example 348, (4-cyclopropylpiperazin-1-yl)(4-(3-fluoro-4-((1-(3-isopropyl-1,2,4-oxadiazol-5-yl)piperidin-4-yl)methoxy)phenyl)cyclohex-3-enyl)methanone], the EC50 reads like this: under setting [1], 14 nM; (Table 2, read-out: EC50 value) at most 50 nM. For `CC(C)c1noc(N2CCC(COc3ccc(C4=CCC(C(=O)N5CC(O)C5)CC4)cc3F)CC2)n1` (centres unmarked) [Example 334, (4-(3-fluoro-4-((1-(3-isopropyl-1,2,4-oxadiazol-5-yl)piperidin-4-yl)methoxy)phenyl)cyclohex-3-enyl)(3-hydroxyazetidin-1-yl)methanone], under setting [1], the half-maximal effective concentration (EC50) was 52 nM. `CC(C)c1noc(N2CCC(COc3ccc(C4=CCC(C(=O)N5CCN(C)CC5)CC4)cc3F)CC2)n1` (centres unmarked) [Example 382, (4-(3-fluoro-4-((1-(3-isopropyl-1,2,4-oxadiazol-5-yl)piperidin-4-yl)methoxy)phenyl)cyclohex-3-enyl)(4-methylpiperazin-1-yl)methanone]: the concentration giving a half-maximal response (EC50) under setting [1] stood at 42 nM and the concentration for a half-maximal effect (EC50) (Table 2, read-out: EC50 value) is at most 50 nM. As for `CCc1cnc(N2CCC(COc3ccc(C4=CCC(C(=O)NCC(C)(C)CO)CC4)cc3F)CC2)nc1` (centres unmarked) [Example 378, 4-(4-((1-(5-ethylpyrimidin-2-yl)piperidin-4-yl)methoxy)-3-fluorophenyl)-N-(3-hydroxy-2,2-dimethylpropyl)cyclohex-3-enecarboxamide], the half-maximal effective concentration (EC50) is 20 nM under setting [1] and at most 50 nM (Table 2, read-out: EC50 value). For `CCc1cnc(N2CCC(COc3ccc(C4=CCC(C(=O)N5CCC(O)CC5)CC4)cc3F)CC2)nc1` (centres unmarked) [Example 294, (4-(4-((1-(5-ethylpyrimidin-2-yl)piperidin-4-yl)methoxy)-3-fluorophenyl)cyclohex-3-enyl)(4-hydroxypiperidin-1-yl)methanone], in that order: 23 nM and at most 50 nM.

The values are drawn from patent US10723699B2 (Hyundai Pharm Co., Ltd., priority 2015, dated 2020).
